Calls of active or inactive are those of the source. The calls are words filed in the database; no cut-off is given here.
Columns and labels:
Carbonic anhydrase 4 [1] = molecular target: T1, Carbonic anhydrase 4 (Homo sapiens, UniProt P22748); test: Inhibition of recombinant human membrane-associated carbonic anhydrase 4 assessed as inhibition of CO2 hydration preincubated for 15 mins prior to testing by phenol red based stopped-flow CO2 hydration assay
Carbonic anhydrase 9 = Carbonic anhydrase 9 (Homo sapiens, UniProt Q16790)
Description: Inhibition of recombinant human tumor-associated carbonic anhydrase 9 assessed as inhibition of CO2 hydration preincubated for 15 mins prior to testing by phenol red based stopped-flow CO2 hydration assay

Carbonic anhydrase 1 [2] = molecular target: T2, Carbonic anhydrase 1 (Homo sapiens, UniProt P00915); test: Inhibition of recombinant human cytosolic carbonic anhydrase 1 assessed as inhibition of CO2 hydration up to 100 uM preincubated for 15 mins prior to testing by phenol red based stopped-flow CO2 hydration assay
Target sequence in this assay (P00915 2-261 limits assumed): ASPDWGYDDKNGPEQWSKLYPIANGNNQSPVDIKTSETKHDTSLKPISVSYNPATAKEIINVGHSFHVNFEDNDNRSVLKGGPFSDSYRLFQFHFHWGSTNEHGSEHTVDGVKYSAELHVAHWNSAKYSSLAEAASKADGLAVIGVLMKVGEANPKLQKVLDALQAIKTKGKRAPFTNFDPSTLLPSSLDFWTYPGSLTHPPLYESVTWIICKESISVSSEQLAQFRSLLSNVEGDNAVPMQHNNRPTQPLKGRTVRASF

Carbonic anhydrase 4 [3] = molecular target: T1, Carbonic anhydrase 4; test: Inhibition of recombinant human membrane-associated carbonic anhydrase 4 assessed as inhibition of CO2 hydration up to 100 uM preincubated for 15 mins prior to testing by phenol red based stopped-flow CO2 hydration assay
Carbonic anhydrase 2 = Carbonic anhydrase 2 (Homo sapiens, UniProt P00918); test: Inhibition of recombinant human carbonic anhydrase 2 assessed as inhibition of CO2 hydration preincubated for 15 mins prior to testing by phenol red based stopped-flow CO2 hydration assay
Carbonic anhydrase 1 [4] = molecular target: T2, Carbonic anhydrase 1; test: Inhibition of recombinant human cytosolic carbonic anhydrase 1 assessed as inhibition of CO2 hydration preincubated for 15 mins prior to testing by phenol red based stopped-flow CO2 hydration assay
Target sequence in this assay (P00915 whole entry): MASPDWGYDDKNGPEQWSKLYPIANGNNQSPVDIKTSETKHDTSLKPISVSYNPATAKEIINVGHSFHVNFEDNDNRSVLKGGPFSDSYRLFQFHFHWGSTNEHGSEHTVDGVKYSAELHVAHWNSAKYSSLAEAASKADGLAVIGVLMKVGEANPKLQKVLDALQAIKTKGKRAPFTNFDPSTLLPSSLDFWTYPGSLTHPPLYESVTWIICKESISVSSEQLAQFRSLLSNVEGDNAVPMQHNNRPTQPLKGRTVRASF

T1 sequence (P22748 whole entry): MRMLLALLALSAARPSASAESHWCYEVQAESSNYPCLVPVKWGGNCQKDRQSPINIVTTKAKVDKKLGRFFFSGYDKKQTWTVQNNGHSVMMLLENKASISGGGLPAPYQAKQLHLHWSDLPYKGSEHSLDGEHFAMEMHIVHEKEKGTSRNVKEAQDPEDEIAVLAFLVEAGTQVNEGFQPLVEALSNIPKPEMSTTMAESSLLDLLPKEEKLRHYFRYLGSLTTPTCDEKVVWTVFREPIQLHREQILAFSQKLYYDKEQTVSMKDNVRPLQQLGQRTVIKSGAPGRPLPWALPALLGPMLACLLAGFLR

Row | Ki (Carbonic anhydrase 9) | SMILES | also measured
1 | 20 nM | Cc1ccc(-c2cc(C(F)(F)F)nn2-c2ccc(S(N)(=O)=O)cc2)cc1 [CELECOXIB] | Ki (Carbonic anhydrase 4 [1]): 290 nM
2 | 1460 nM | CCOC(=O)c1nn(-c2ccc(S(N)(=O)=O)cc2)c2nc3nc(-c4ccc(Cl)cc4)cc(-c4ccc(Cl)cc4)c3c(=O)n12 | 
3 | 3260 nM | CCOC(=O)c1nn(-c2ccc(S(N)(=O)=O)cc2)c2nc3nc(-c4ccc(Cl)cc4)cc(-c4ccccc4)c3c(=O)n12 | inhibition (Carbonic anhydrase 1 [2]): inactive
4 | 190 nM | CC(=O)c1nn(-c2ccc(S(N)(=O)=O)cc2)c2nc3nc(-c4cccs4)cc(-c4ccc(F)cc4)c3c(=O)n12 | 
5 | 1100 nM | CCOC(=O)c1nn(-c2ccc(S(N)(=O)=O)cc2)c2nc3nc(-c4cccs4)cc(-c4ccc([N+](=O)[O-])cc4)c3c(=O)n12 | 
6 | 330 nM | COc1ccc(-c2cc(-c3ccc(Cl)cc3)nc3nc4n(-c5ccc(S(N)(=O)=O)cc5)nc(C(C)=O)n4c(=O)c23)cc1 | 
7 | 1450 nM | CCOC(=O)c1nn(-c2ccc(S(N)(=O)=O)cc2)c2nc3nc(-c4ccc(Cl)cc4)cc(-c4ccc(OC)cc4)c3c(=O)n12 | inhibition (Carbonic anhydrase 4 [3]): inactive
8 | 1900 nM | CCOC(=O)c1nn(-c2ccc(S(N)(=O)=O)cc2)c2nc3nc(-c4cccs4)cc(-c4ccccc4)c3c(=O)n12 | inhibition (Carbonic anhydrase 4 [3]): inactive
9 | 160 nM | CC(=O)c1nn(-c2ccc(S(N)(=O)=O)cc2)c2nc3nc(-c4cccs4)cc(-c4ccc([N+](=O)[O-])cc4)c3c(=O)n12 | 
10 | 420 nM | COc1ccc(-c2cc(-c3cccs3)nc3nc4n(-c5ccc(S(N)(=O)=O)cc5)nc(C(C)=O)n4c(=O)c23)cc1 | 
11 | 1620 nM | CCOC(=O)c1nn(-c2ccc(S(N)(=O)=O)cc2)c2nc3nc(-c4cccs4)cc(-c4ccc(F)cc4)c3c(=O)n12 | inhibition (Carbonic anhydrase 1 [2]): inactive
12 | 180 nM | CC(=O)c1nn(-c2ccc(S(N)(=O)=O)cc2)c2nc3nc(-c4ccc(Cl)cc4)cc(-c4ccccc4)c3c(=O)n12 | 
13 | 330 nM | CC(=O)c1nn(-c2ccc(S(N)(=O)=O)cc2)c2nc3nc(-c4ccc(Cl)cc4)cc(-c4ccc([N+](=O)[O-])cc4)c3c(=O)n12 | 
14 | 1120 nM | CC(=O)c1nn(-c2ccc(S(N)(=O)=O)cc2)c2nc3nc(-c4cccs4)cc(-c4ccccc4)c3c(=O)n12 | Ki (Carbonic anhydrase 4 [1]): 4790 nM; Ki (Carbonic anhydrase 2): 730 nM; Ki (Carbonic anhydrase 1 [4]): 6780 nM
15 | 3240 nM | CCOC(=O)c1nn(-c2ccc(S(N)(=O)=O)cc2)c2nc3nc(-c4ccc(Cl)cc4)cc(-c4ccc(F)cc4)c3c(=O)n12 | 
16 | 390 nM | CCOC(=O)c1nn(-c2ccc(S(N)(=O)=O)cc2)c2nc3nc(-c4cccs4)cc(-c4ccc(Cl)cc4)c3c(=O)n12 | 
17 | 250 nM | CC(=O)c1nn(-c2ccc(S(N)(=O)=O)cc2)c2nc3nc(-c4ccc(Cl)cc4)cc(-c4ccc(F)cc4)c3c(=O)n12 | 
18 | 350 nM | CC(=O)c1nn(-c2ccc(S(N)(=O)=O)cc2)c2nc3nc(-c4ccc(Cl)cc4)cc(-c4ccc(Cl)cc4)c3c(=O)n12 | 
19 | 990 nM | CC(=O)c1nn(-c2ccc(S(N)(=O)=O)cc2)c2nc3nc(-c4cccs4)cc(-c4ccc(Cl)cc4)c3c(=O)n12 | inhibition (Carbonic anhydrase 1 [2]): inactive
20 | 380 nM | CCOC(=O)c1nn(-c2ccc(S(N)(=O)=O)cc2)c2nc3nc(-c4cccs4)cc(-c4ccc(OC)cc4)c3c(=O)n12 | 
21 | 2460 nM | CCOC(=O)c1nn(-c2ccc(S(N)(=O)=O)cc2)c2nc3nc(-c4ccc(Cl)cc4)cc(-c4ccc([N+](=O)[O-])cc4)c3c(=O)n12 | 

From ChEMBL document CHEMBL4004875, “Synthesis of bulky-tailed sulfonamides incorporating pyrido[2,3-d][1,2,4]triazolo[4,3-a]pyrimidin-1(5H)-yl) moieties and evaluation of their carbonic anhydrases I, II, IV and IX inhibitory effects” (Bioorg Med Chem, 2017)
